The kinase profiling compilation of Christmann-Franck et al. (2016)

Columns and labels:
Experiment in all cases: KINOMEscan competition binding
Settings in all cases: compound 10.0 µM
AAK1 (human) = AAK1 (human) (UniProt Q2M2I8)
AKT1 (human) = AKT1 (human) (UniProt P31749)
ANKK1 (human) = ANKK1 (human) (UniProt Q8NFD2)
CHEK1 (human) = CHEK1 (human) (UniProt O14757)
CSF1R (human) = CSF1R (human) (UniProt P07333)
EIF2AK2 (human) = EIF2AK2 (human) (UniProt P19525)
EPHA7 (human) = EPHA7 (human) (UniProt Q15375)
EPHA8 (human) = EPHA8 (human) (UniProt P29322)
FLT1 (human) = FLT1 (human) (UniProt P17948)
FYN (human) = FYN (human) (UniProt P06241)
MAPK15 (human) = MAPK15 (human) (UniProt Q8TD08)
MARK4 (human) = MARK4 (human) (UniProt Q96L34)
MKNK1 (human) = MKNK1 (human) (UniProt Q9BUB5)
NEK1 (human) = NEK1 (human) (UniProt Q96PY6)
NEK5 (human) = NEK5 (human) (UniProt Q6P3R8)
NTRK3 (human) = NTRK3 (human) (UniProt Q16288)
PIM1 (human) = PIM1 (human) (UniProt P11309)
PKMYT1 (human) = PKMYT1 (human) (UniProt Q99640)
PLK3 (human) = PLK3 (human) (UniProt Q9H4B4)
PTK2 (human) = PTK2 (human) (UniProt Q05397)
PTK2B (human) = PTK2B (human) (UniProt Q14289)
RIPK2 (human) = RIPK2 (human) (UniProt O43353)
RPS6KA1 KD1 (human) = RPS6KA1 KD1 (human) (UniProt Q15418)
RPS6KA3 KD1 (human) = RPS6KA3 KD1 (human) (UniProt P51812)
RPS6KA5 KD1 (human) = RPS6KA5 KD1 (human) (UniProt O75582)
RPS6KA5 KD2 (human) = RPS6KA5 KD2 (human) (UniProt O75582)
SIK1 (human) = SIK1 (human) (UniProt P57059)
SRPK1 (human) = SRPK1 (human) (UniProt Q96SB4)
STK24 (human) = STK24 (human) (UniProt Q9Y6E0)
STK36 (human) = STK36 (human) (UniProt Q9NRP7)
STK4 (human) = STK4 (human) (UniProt Q13043)
WEE1 (human) = WEE1 (human) (UniProt P30291)
HIPK4 (human) = HIPK4 (human) (UniProt Q8NE63)
HUNK (human) = HUNK (human) (UniProt P57058)
MAP3K15 (human) = MAP3K15 (human) (UniProt Q6ZN16)
MATK (human) = MATK (human) (UniProt P42679)
MINK1 (human) = MINK1 (human) (UniProt Q8N4C8)
[1] = tested on: RET (human), P07949 [V804L]
ROCK2 (human) = ROCK2 (human) (UniProt O75116)
TAOK3 (human) = TAOK3 (human) (UniProt Q9H2K8)

STK24 (human), sequence (Q9Y6E0 whole entry, looked up): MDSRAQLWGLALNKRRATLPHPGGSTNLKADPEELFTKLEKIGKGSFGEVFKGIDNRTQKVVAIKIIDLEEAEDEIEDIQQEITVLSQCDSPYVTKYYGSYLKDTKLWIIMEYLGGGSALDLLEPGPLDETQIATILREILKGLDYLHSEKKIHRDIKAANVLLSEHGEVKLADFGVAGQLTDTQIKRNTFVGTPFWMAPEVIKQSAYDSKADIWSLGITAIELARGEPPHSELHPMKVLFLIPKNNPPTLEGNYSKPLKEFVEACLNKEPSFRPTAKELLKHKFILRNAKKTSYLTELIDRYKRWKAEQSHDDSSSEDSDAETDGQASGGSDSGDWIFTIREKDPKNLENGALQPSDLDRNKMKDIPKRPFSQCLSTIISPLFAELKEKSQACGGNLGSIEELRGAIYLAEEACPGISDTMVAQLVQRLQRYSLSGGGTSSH
CSF1R (human), sequence (P07333 whole entry, looked up): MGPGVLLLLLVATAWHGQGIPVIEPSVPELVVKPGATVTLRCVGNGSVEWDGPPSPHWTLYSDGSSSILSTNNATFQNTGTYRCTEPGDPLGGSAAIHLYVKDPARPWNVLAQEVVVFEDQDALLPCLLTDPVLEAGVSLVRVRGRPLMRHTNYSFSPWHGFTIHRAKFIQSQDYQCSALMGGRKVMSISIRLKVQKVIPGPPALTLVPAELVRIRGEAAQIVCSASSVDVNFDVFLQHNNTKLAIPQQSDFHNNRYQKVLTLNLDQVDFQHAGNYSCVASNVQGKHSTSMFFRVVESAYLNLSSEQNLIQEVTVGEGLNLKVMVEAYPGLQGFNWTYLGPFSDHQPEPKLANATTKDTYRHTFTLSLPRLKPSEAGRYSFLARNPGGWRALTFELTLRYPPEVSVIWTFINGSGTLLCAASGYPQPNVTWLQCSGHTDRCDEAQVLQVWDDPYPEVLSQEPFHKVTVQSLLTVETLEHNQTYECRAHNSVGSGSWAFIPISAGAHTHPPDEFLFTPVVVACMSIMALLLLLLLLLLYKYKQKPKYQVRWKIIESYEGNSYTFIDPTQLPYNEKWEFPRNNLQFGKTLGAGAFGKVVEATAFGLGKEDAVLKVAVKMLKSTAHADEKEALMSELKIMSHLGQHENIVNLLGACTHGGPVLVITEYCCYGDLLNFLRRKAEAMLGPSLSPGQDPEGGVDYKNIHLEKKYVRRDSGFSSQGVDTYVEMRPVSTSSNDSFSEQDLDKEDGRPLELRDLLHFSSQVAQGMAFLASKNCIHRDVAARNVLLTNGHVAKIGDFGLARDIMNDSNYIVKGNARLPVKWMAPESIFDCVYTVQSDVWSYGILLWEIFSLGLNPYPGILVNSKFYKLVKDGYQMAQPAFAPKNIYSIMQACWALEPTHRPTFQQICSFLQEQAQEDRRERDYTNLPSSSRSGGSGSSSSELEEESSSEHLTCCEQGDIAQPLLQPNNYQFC
EPHA8 (human), sequence (P29322 whole entry, looked up): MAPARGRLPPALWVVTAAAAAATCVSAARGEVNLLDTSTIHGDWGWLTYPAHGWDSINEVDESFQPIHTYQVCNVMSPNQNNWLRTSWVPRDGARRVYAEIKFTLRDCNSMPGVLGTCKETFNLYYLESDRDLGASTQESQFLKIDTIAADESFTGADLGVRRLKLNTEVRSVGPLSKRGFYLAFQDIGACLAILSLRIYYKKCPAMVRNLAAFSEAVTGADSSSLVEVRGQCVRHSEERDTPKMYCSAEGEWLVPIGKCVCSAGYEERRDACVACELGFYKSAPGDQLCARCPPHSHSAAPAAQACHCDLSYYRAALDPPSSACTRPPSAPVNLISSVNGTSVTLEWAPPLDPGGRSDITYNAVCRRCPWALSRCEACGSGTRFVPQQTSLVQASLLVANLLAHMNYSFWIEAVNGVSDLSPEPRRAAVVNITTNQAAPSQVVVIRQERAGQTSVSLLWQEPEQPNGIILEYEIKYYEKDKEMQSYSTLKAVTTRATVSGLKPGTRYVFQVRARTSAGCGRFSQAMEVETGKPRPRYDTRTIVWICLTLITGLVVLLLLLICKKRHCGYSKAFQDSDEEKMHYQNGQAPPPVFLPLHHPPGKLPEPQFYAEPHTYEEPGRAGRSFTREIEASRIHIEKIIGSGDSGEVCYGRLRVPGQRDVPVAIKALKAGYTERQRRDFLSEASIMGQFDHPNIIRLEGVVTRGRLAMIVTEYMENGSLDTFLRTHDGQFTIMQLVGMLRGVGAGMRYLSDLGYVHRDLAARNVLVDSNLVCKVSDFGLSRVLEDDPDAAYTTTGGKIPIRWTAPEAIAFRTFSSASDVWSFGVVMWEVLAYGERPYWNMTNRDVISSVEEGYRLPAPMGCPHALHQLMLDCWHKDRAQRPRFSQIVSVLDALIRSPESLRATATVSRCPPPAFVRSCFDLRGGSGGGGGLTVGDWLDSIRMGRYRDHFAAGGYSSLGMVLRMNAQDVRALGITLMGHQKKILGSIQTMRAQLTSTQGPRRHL
STK36 (human), sequence (Q9NRP7 whole entry, looked up): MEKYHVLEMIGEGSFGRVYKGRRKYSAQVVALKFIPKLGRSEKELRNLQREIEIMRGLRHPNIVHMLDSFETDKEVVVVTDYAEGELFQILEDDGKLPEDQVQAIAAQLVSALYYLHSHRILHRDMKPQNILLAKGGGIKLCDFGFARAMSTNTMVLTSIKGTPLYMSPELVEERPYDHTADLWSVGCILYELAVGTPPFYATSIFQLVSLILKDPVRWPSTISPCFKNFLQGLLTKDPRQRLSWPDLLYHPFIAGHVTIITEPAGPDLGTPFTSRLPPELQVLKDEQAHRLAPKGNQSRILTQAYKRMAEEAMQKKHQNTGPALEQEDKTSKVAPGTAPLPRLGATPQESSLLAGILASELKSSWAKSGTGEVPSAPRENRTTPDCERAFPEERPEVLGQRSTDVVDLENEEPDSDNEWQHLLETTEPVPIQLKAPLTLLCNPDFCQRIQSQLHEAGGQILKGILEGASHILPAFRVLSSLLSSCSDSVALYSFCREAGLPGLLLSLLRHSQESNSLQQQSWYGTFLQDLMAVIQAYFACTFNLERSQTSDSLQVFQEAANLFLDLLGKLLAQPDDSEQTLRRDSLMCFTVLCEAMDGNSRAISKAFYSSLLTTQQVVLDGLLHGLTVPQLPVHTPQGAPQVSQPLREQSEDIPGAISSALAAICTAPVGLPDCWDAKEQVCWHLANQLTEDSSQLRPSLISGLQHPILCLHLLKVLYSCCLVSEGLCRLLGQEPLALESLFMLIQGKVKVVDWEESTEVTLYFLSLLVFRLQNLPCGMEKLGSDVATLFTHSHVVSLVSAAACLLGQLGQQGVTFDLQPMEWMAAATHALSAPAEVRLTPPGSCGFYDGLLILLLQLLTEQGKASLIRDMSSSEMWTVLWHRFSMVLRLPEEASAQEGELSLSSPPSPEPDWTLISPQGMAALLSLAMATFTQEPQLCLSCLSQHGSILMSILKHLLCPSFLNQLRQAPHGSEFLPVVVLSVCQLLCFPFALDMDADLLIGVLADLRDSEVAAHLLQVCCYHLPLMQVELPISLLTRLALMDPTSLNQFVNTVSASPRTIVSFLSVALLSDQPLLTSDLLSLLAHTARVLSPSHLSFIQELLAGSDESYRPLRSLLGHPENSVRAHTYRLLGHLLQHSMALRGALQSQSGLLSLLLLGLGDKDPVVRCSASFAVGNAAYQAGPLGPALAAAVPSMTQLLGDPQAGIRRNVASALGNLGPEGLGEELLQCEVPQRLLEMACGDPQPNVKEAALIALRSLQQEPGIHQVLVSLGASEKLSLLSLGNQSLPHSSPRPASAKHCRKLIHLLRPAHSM
AKT1 (human), sequence (P31749 whole entry, looked up): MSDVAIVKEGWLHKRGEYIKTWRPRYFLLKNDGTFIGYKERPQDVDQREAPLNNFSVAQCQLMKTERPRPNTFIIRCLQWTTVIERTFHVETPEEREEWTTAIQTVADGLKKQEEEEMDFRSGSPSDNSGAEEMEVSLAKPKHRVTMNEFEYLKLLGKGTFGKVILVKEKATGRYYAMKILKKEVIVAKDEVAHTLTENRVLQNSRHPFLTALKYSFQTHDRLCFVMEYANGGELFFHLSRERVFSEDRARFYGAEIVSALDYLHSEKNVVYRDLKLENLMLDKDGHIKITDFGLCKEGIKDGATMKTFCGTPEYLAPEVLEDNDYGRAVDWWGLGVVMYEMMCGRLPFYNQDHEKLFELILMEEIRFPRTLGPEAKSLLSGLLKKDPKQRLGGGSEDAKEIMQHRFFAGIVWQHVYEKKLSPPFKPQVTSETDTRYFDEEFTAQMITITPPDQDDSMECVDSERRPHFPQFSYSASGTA
SRPK1 (human), sequence (Q96SB4 whole entry, looked up): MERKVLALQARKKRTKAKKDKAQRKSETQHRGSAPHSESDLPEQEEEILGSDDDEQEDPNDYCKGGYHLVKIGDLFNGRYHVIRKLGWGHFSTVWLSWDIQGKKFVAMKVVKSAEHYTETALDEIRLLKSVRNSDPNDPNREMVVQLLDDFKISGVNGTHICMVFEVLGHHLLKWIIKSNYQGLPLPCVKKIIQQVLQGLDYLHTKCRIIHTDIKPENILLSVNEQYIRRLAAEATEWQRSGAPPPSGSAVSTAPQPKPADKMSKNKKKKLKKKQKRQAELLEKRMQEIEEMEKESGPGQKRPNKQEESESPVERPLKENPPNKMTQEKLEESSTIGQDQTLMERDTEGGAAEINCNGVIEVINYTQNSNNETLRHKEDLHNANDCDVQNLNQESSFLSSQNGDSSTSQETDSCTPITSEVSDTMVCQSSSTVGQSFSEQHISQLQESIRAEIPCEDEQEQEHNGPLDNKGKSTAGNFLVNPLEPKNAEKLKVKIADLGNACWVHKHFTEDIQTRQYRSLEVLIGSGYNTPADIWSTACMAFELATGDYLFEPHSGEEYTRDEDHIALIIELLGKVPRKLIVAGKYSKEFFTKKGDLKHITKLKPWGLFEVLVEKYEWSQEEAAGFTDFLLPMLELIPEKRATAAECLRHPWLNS

`COc1ccc(N(C(=O)Oc2cc(C(=O)Nc3cccc(C(F)(F)F)c3)ccc2C)c2ccnc(Nc3ccc(N4CCN(C)CC4)cc3)n2)c(OC)c1` gave a kinase still bound, per cent of control (AAK1 (human)) of 100%, a kinase still bound, per cent of control (AKT1 (human)) of 100% and a kinase still bound, per cent of control (ANKK1 (human)) of 100%. The kinase still bound, per cent of control (CHEK1 (human)) was 100%, the kinase still bound, per cent of control (CSF1R (human)) was 0.35% and the kinase still bound, per cent of control (EIF2AK2 (human)) was 100%. It also gave a kinase still bound, per cent of control (EPHA7 (human)) of 0.6%, a kinase still bound, per cent of control (EPHA8 (human)) of 0% and a kinase still bound, per cent of control (FLT1 (human)) of 1.2%. The kinase still bound, per cent of control (FYN (human)) was 1.4%, the kinase still bound, per cent of control (MAPK15 (human)) was 100% and the kinase still bound, per cent of control (MARK4 (human)) was 100%. It also gave a kinase still bound, per cent of control (MKNK1 (human)) of 100%, a kinase still bound, per cent of control (NEK1 (human)) of 100% and a kinase still bound, per cent of control (NEK5 (human)) of 100%. For the same molecule, the kinase still bound, per cent of control (NTRK3 (human)) was 13%, the kinase still bound, per cent of control (PIM1 (human)) was 100% and the kinase still bound, per cent of control (PKMYT1 (human)) was 100%. It also gave a kinase still bound, per cent of control (PLK3 (human)) of 100%, a kinase still bound, per cent of control (PTK2 (human)) of 4.6% and a kinase still bound, per cent of control (PTK2B (human)) of 0.9%. For the same molecule, the kinase still bound, per cent of control (RIPK2 (human)) was 2.3%, the kinase still bound, per cent of control (RPS6KA1 KD1 (human)) was 100% and the kinase still bound, per cent of control (RPS6KA3 KD1 (human)) was 100%. The kinase still bound, per cent of control (RPS6KA5 KD1 (human)) was 100%, the kinase still bound, per cent of control (RPS6KA5 KD2 (human)) was 100% and the kinase still bound, per cent of control (SIK1 (human)) was 0.1%. The kinase still bound, per cent of control (SRPK1 (human)) was 100%, the kinase still bound, per cent of control (STK24 (human)) was 100% and the kinase still bound, per cent of control (STK36 (human)) was 1.2%. The kinase still bound, per cent of control (STK4 (human)) was 100% and the kinase still bound, per cent of control (WEE1 (human)) was 100%.

`N#C/C(=C1/Nc2ccccc2S1)c1ccnc(NCCc2cccnc2)n1` gave a kinase still bound, per cent of control (AAK1 (human)) of 10%, a kinase still bound, per cent of control (AKT1 (human)) of 100% and a kinase still bound, per cent of control (ANKK1 (human)) of 5.6%. It also gave a kinase still bound, per cent of control (CHEK1 (human)) of 100%, a kinase still bound, per cent of control (CSF1R (human)) of 98% and a kinase still bound, per cent of control (EIF2AK2 (human)) of 72%. The kinase still bound, per cent of control (EPHA7 (human)) was 99%, the kinase still bound, per cent of control (EPHA8 (human)) was 100% and the kinase still bound, per cent of control (FLT1 (human)) was 100%. It also gave a kinase still bound, per cent of control (FYN (human)) of 100%, a kinase still bound, per cent of control (HIPK4 (human)) of 42% and a kinase still bound, per cent of control (HUNK (human)) of 92%. For the same molecule, the kinase still bound, per cent of control (MAP3K15 (human)) was 100%, the kinase still bound, per cent of control (MAPK15 (human)) was 73% and the kinase still bound, per cent of control (MARK4 (human)) was 100%. The kinase still bound, per cent of control (MATK (human)) was 100%, the kinase still bound, per cent of control (MINK1 (human)) was 45% and the kinase still bound, per cent of control (MKNK1 (human)) was 97%. For the same molecule, the kinase still bound, per cent of control (NEK1 (human)) was 57%, the kinase still bound, per cent of control (NEK5 (human)) was 100% and the kinase still bound, per cent of control (NTRK3 (human)) was 69%. The kinase still bound, per cent of control (PIM1 (human)) was 4.4%, the kinase still bound, per cent of control (PKMYT1 (human)) was 95% and the kinase still bound, per cent of control (PLK3 (human)) was 12%. For the same molecule, the kinase still bound, per cent of control (PTK2 (human)) was 100%, the kinase still bound, per cent of control (PTK2B (human)) was 89% and the kinase still bound, per cent of control [1] was 100%. It also gave a kinase still bound, per cent of control (RIPK2 (human)) of 81%, a kinase still bound, per cent of control (ROCK2 (human)) of 23% and a kinase still bound, per cent of control (RPS6KA1 KD1 (human)) of 83%. For the same molecule, the kinase still bound, per cent of control (RPS6KA5 KD1 (human)) was 100%, the kinase still bound, per cent of control (RPS6KA5 KD2 (human)) was 72% and the kinase still bound, per cent of control (SIK1 (human)) was 100%. For the same molecule, the kinase still bound, per cent of control (SRPK1 (human)) was 70%, the kinase still bound, per cent of control (STK24 (human)) was 80% and the kinase still bound, per cent of control (STK36 (human)) was 100%. The kinase still bound, per cent of control (STK4 (human)) was 100%, the kinase still bound, per cent of control (TAOK3 (human)) was 24% and the kinase still bound, per cent of control (WEE1 (human)) was 100%.

In the case of `COc1cc(N2CCC(C(N)=O)CC2)ccc1Nc1nc(N)c(Cl)c(Nc2ccccc2S(=O)(=O)C(C)C)n1`, the kinase still bound, per cent of control (AAK1 (human)) is reported as 100%, the kinase still bound, per cent of control (AKT1 (human)) is reported as 100% and the kinase still bound, per cent of control (ANKK1 (human)) is reported as 100%. For the same molecule, the kinase still bound, per cent of control (CHEK1 (human)) was 100%, the kinase still bound, per cent of control (CSF1R (human)) was 100% and the kinase still bound, per cent of control (EIF2AK2 (human)) was 100%. For the same molecule, the kinase still bound, per cent of control (EPHA7 (human)) was 15%, the kinase still bound, per cent of control (EPHA8 (human)) was 100% and the kinase still bound, per cent of control (FLT1 (human)) was 100%. The kinase still bound, per cent of control (FYN (human)) was 100%, the kinase still bound, per cent of control (MAPK15 (human)) was 100% and the kinase still bound, per cent of control (MARK4 (human)) was 100%. The kinase still bound, per cent of control (MINK1 (human)) was 100%, the kinase still bound, per cent of control (MKNK1 (human)) was 100% and the kinase still bound, per cent of control (NEK1 (human)) was 100%. The kinase still bound, per cent of control (NEK5 (human)) was 100%, the kinase still bound, per cent of control (NTRK3 (human)) was 100% and the kinase still bound, per cent of control (PIM1 (human)) was 100%. It also gave a kinase still bound, per cent of control (PKMYT1 (human)) of 100%, a kinase still bound, per cent of control (PLK3 (human)) of 100% and a kinase still bound, per cent of control (PTK2 (human)) of 0%. The kinase still bound, per cent of control (PTK2B (human)) was 0.15%, the kinase still bound, per cent of control [1] was 100% and the kinase still bound, per cent of control (RIPK2 (human)) was 100%. It also gave a kinase still bound, per cent of control (ROCK2 (human)) of 100%, a kinase still bound, per cent of control (RPS6KA1 KD1 (human)) of 100% and a kinase still bound, per cent of control (RPS6KA3 KD1 (human)) of 100%. It also gave a kinase still bound, per cent of control (RPS6KA5 KD1 (human)) of 100%, a kinase still bound, per cent of control (RPS6KA5 KD2 (human)) of 100% and a kinase still bound, per cent of control (SIK1 (human)) of 100%. The kinase still bound, per cent of control (SRPK1 (human)) was 100%, the kinase still bound, per cent of control (STK24 (human)) was 100% and the kinase still bound, per cent of control (STK36 (human)) was 100%. For the same molecule, the kinase still bound, per cent of control (STK4 (human)) was 100%, the kinase still bound, per cent of control (TAOK3 (human)) was 100% and the kinase still bound, per cent of control (WEE1 (human)) was 100%.

Molecule `COc1cc(C)c(Sc2cnc(NC(=O)c3ccc(CNC(C)C(C)C)cc3)s2)cc1C(=O)N1CCN(C(C)=O)CC1` (stereo not drawn) has a kinase still bound, per cent of control (AAK1 (human)) of 100%, a kinase still bound, per cent of control (AKT1 (human)) of 100% and a kinase still bound, per cent of control (ANKK1 (human)) of 100%. For the same molecule, the kinase still bound, per cent of control (CHEK1 (human)) was 100%, the kinase still bound, per cent of control (CSF1R (human)) was 100% and the kinase still bound, per cent of control (EIF2AK2 (human)) was 100%. The kinase still bound, per cent of control (EPHA7 (human)) was 100%, the kinase still bound, per cent of control (EPHA8 (human)) was 100% and the kinase still bound, per cent of control (FLT1 (human)) was 100%. The kinase still bound, per cent of control (FYN (human)) was 100%, the kinase still bound, per cent of control (MAPK15 (human)) was 100% and the kinase still bound, per cent of control (MARK4 (human)) was 100%. It also gave a kinase still bound, per cent of control (MINK1 (human)) of 100%, a kinase still bound, per cent of control (MKNK1 (human)) of 100% and a kinase still bound, per cent of control (NEK1 (human)) of 100%. The kinase still bound, per cent of control (NEK5 (human)) was 100%, the kinase still bound, per cent of control (NTRK3 (human)) was 100% and the kinase still bound, per cent of control (PIM1 (human)) was 100%. The kinase still bound, per cent of control (PKMYT1 (human)) was 100%, the kinase still bound, per cent of control (PLK3 (human)) was 100% and the kinase still bound, per cent of control (PTK2 (human)) was 100%. For the same molecule, the kinase still bound, per cent of control (PTK2B (human)) was 100%, the kinase still bound, per cent of control [1] was 100% and the kinase still bound, per cent of control (RIPK2 (human)) was 100%. The kinase still bound, per cent of control (ROCK2 (human)) was 100%, the kinase still bound, per cent of control (RPS6KA1 KD1 (human)) was 100% and the kinase still bound, per cent of control (RPS6KA3 KD1 (human)) was 100%. For the same molecule, the kinase still bound, per cent of control (RPS6KA5 KD1 (human)) was 100%, the kinase still bound, per cent of control (RPS6KA5 KD2 (human)) was 100% and the kinase still bound, per cent of control (SIK1 (human)) was 100%. It also gave a kinase still bound, per cent of control (SRPK1 (human)) of 100%, a kinase still bound, per cent of control (STK24 (human)) of 33% and a kinase still bound, per cent of control (STK36 (human)) of 100%. It also gave a kinase still bound, per cent of control (STK4 (human)) of 100%, a kinase still bound, per cent of control (TAOK3 (human)) of 3.6% and a kinase still bound, per cent of control (WEE1 (human)) of 100%.
